From patent publication US6924302B2, “Substituted triazole diamine derivatives as kinase inhibitors” (Ortho McNeil Pharmaceutical, Inc., priority 2000, dated 2005)
Where two headings read alike, the source gives them in different places.

Assays:
[1] = molecular target: T1, Glycogen Synthase Kinase-3 (beta isoform) (Oryctolagus cuniculus, UniProt G1T8E2); assay: Kinase Selectivity Assay Glycogen Synthase Kinase-3; type: biochemical, rabbit
T1 construct: purchased New England Biolabs 6040; host or cells: E. coli
T1 sequence (G1T8E2 1-432): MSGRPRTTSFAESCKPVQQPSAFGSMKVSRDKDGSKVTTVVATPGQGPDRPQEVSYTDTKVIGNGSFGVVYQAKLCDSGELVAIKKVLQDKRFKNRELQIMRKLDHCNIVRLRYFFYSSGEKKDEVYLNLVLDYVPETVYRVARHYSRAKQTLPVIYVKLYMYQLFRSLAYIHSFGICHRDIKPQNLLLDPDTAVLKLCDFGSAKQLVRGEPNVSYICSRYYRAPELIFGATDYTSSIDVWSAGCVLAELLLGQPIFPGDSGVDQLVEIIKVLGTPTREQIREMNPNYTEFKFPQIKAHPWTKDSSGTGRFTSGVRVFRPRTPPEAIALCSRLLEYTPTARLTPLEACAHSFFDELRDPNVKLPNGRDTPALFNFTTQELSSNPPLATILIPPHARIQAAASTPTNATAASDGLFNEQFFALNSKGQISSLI
Method: (§1) Assays to test compound inhibition of other kinases were preformed using methods that measure the amount of phosphorylation of a biotinylated peptide substrate. Biotinylated peptide substrates were selected from the literature as appropriate for the enzyme being evaluated. […] Assay conditions vary slightly for each protein kinase, for example, insulin receptor kinase requires 10 mM MnCl2 for activity and Calmodulin-dependent protein kinase requires calmodulin and 10 mM CaCl2. These assay conditions are known in the art. The reaction mixture was dispensed into the wells of a streptavidin coated Flashplate and 1 μl drug stock in 100% DMSO was added to a 100 μl reaction volume resulting in a final concentration of 1% DMSO on the reaction. Enzyme was diluted in 50 mM Tris-HCl pH=8.0, 0.1% BSA and add to each well. The reaction was incubated for one hour at 30° C. in the presence of compound. After one hour the reaction mix was aspirated from the plate and the plate was washed with PBS containing 100 mM EDTA. The plate was read on a scintillation counter to determine ^33P-γ-ATP incorporated into the immobilized peptide. Test compounds were assayed in duplicate at 8 concentrations [100 uM, 10 uM, 1 uM, 100 nM, 10 nM, 1 nM, 100 pM, 10 pM]. A maximum and minimum signal for the assay was determined on each plate. The IC50 was calculated from the dose response curve of the percent inhibition of the maximum signal in the assay according to the formula [max signal—background/test compound signal—background (100)=% inhibition] by graphing the percent inhibition against the log concentration of test compound. Known inhibitor compounds appropriate for the kinase being assayed were also included on each plate.
(§2) CDK2 in complex with cyclin A is commercially available (Upstate Biotech, Lake Placid, N.Y.). The CDK4 complex was composed of a mouse CDK4 protein and a mouse Cyclin D1 protein (The mouse CDK4 protein was genetically fused to an N-terminal Flag-epitope tag and the mouse Cyclin D1 protein was fused with an N-terminal AU-1 epitope tag. The genes encoding these proteins were transferred to commercially available baculoviral vectors. The recombinant CDK4/D1 complex was then made by co-infecting commercially available insect cells with viruses carrying these two constructs). […] ERK-1 protein (Discontinued from Calbiochem). EGFR (epidermal growth factor receptor) is purified from human A431 cell membranes (Sigma, St. Louis, Mo., Cat.# E3641).

[2] = molecular target: T2, PDGF-R (platelet derived growth factor receptor) beta subunit kinase domain (Homo sapiens, UniProt P09619); assay: Kinase Selectivity Assay PDGF-R; type: biochemical
T2 construct: nucleotides 1874-3507 of the human PDGF-R beta subunit kinase domain; polyhistidine (N)
T2 sequence (P09619 564-1106): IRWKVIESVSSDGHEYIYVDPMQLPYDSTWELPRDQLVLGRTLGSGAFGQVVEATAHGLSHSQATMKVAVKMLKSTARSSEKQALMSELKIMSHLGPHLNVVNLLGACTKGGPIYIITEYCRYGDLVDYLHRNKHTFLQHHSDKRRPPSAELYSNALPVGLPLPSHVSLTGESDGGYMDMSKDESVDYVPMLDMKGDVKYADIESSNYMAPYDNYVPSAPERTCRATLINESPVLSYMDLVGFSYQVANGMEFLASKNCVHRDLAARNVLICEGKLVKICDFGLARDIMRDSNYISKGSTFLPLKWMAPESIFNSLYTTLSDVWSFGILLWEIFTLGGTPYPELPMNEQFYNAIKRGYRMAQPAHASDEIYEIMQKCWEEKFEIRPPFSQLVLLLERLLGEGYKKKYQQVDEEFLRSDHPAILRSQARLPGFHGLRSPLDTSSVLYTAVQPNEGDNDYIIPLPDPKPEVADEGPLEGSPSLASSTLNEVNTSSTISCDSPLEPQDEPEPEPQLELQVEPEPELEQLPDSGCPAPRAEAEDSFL
Method: as §1, §2

[3] = molecular target: T3, MAP Kinase (ERK-2 isoform) (Rattus norvegicus, UniProt P63086); assay: Kinase Selectivity Assay MAP Kinase (ERK-2); type: biochemical
T3 construct: polyhistidine (N); host or cells: E. coli
T3 sequence (P63086 whole entry, canonical isoform): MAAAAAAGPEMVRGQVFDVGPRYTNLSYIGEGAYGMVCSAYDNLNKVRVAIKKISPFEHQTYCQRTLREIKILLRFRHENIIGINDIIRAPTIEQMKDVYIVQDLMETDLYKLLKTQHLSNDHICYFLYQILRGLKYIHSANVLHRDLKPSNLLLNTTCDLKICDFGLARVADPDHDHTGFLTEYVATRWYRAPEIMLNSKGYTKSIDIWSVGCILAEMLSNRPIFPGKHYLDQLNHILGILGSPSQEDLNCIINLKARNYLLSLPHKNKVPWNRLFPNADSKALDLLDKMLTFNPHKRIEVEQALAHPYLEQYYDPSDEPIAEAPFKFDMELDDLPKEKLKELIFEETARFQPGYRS
Method: as §1, §2

CDK1:Cyclin-B = molecular target: T4, CDK1:Cyclin-B (Homo sapiens, UniProt P06493); assay: CDK1 Screening Assay; type: biochemical
T4 construct: purchased New England Biolabs 6020; host or cells: insect cells
T4 sequence (P06493 whole entry): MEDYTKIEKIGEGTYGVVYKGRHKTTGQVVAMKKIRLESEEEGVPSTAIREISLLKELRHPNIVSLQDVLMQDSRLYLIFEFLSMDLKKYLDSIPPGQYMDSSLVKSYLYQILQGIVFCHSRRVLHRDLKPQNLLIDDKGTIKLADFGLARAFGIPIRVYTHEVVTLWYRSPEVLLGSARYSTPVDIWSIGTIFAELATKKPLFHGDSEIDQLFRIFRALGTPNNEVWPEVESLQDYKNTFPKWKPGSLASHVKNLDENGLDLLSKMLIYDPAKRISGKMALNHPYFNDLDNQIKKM
T4 sequence (P14635 whole entry partner): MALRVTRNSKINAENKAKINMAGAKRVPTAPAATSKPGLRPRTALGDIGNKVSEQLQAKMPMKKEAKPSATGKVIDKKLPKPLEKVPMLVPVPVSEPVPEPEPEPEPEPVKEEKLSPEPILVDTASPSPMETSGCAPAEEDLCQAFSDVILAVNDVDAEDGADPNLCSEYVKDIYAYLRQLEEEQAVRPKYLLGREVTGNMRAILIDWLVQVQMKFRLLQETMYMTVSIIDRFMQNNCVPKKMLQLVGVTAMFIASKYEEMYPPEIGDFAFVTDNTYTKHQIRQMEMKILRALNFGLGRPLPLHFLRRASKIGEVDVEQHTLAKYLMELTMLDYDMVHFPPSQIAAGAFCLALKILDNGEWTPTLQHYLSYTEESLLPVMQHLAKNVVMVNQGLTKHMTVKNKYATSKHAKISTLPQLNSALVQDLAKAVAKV
Procedure, shortened: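 Human CDK1:cyclin-B (30 ng/well) with biotinylated histone-H1 peptide and ^33P-γ-ATP, 1 h at 30° C, 1% DMSO, on streptavidin FlashPlate; incorporation read by scintillation.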

[4] = molecular target: T5, VEGF-R (vascular endothelial growth factor receptor-2) (Rattus norvegicus, UniProt O08775); assay: VEGF-R Screening Assay; type: biochemical
T5 construct: polyhistidine (6xHIS) (N)
T5 sequence (O08775 786-1343): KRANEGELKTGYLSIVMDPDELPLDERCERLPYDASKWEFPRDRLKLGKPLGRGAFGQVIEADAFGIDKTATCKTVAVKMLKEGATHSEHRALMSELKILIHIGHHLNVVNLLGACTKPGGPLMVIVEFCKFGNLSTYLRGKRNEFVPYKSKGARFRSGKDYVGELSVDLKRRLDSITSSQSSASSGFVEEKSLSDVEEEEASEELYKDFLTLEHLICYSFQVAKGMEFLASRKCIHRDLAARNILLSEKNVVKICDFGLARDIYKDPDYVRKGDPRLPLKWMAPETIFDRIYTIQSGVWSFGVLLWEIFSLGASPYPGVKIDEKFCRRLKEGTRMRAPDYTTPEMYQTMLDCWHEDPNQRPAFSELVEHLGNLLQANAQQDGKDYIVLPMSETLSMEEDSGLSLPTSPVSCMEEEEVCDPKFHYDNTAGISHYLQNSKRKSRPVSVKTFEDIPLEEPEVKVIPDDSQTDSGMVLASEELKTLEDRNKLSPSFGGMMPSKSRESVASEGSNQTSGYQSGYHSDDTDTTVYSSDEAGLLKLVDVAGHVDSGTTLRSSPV

[5] = molecular target: T6, Casein Kinase 2 (alpha and beta subunits) (Homo sapiens, UniProt P68400); assay: Kinase Selectivity Assay Casein Kinase 2; type: biochemical
T6 construct: purchased New England Biolabs 6010; host or cells: E. coli
T6 sequence (P68400 whole entry): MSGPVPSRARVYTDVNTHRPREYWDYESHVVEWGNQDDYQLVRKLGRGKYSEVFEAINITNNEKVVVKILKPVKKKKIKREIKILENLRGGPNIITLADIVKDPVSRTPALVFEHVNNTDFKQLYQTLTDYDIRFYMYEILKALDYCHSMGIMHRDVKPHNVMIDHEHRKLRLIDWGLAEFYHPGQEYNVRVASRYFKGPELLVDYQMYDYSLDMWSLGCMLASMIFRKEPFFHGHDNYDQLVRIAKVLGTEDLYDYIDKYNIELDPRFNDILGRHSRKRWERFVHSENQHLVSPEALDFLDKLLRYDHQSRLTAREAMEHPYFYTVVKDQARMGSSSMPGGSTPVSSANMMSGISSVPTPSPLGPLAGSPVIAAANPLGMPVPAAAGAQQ
T6 sequence (P67870 whole entry partner): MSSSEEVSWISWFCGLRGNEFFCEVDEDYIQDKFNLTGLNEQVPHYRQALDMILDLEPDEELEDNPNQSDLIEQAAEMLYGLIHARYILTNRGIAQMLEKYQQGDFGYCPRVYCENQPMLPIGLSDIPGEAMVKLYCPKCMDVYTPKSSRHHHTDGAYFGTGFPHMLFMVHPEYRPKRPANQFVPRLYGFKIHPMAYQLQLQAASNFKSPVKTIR
Method: as §1, §2

Protein Kinase A = molecular target: T7, Protein Kinase A (Bos taurus, UniProt P00517); assay: Kinase Selectivity Assay Protein Kinase A; type: biochemical, bovine
T7 construct: purified from bovine heart; purchased Upstate Biotech 14-114; host or cells: bovine heart
Method: as §1, §2

[6] = molecular target: T8, HER2 (human epidermal growth factor receptor-2) (Homo sapiens, UniProt P04626); assay: Kinase Selectivity Assay HER2; type: biochemical
T8 construct: begins at amino acid 676 followed by the remainder of the HER2 cytoplasmic domain; polyhistidine (N)
T8 sequence (P04626 676-1255 limits assumed): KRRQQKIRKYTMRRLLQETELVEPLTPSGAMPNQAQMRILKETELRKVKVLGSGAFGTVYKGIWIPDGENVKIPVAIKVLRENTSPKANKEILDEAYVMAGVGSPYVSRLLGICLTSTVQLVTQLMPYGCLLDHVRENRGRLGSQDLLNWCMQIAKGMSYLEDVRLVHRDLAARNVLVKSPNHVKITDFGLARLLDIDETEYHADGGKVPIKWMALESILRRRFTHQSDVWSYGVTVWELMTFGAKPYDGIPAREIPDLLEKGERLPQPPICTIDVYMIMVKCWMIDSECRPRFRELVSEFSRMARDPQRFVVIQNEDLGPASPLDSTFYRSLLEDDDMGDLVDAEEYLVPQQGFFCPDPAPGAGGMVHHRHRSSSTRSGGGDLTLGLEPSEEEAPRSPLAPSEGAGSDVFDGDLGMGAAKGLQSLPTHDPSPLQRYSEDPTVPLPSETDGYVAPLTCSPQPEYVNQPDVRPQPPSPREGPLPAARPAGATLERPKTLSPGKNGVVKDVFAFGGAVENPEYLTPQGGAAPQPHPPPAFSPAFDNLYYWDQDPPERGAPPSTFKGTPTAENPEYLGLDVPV
Method: as §1, §2

[7] = molecular target: T9, Calmodulin Kinase (calmodulin-dependent protein kinase 2) (Rattus norvegicus, UniProt P11275); assay: Kinase Selectivity Assay Calmodulin Kinase; type: biochemical
T9 construct: a truncated version of the alpha subunit of the rat protein; purchased New England Biolabs 6060; host or cells: insect cells
Method: as §1, §2

Insulin Receptor Kinase = Insulin Receptor Kinase (Homo sapiens, UniProt P06213); assay: Kinase Selectivity Assay Insulin Receptor Kinase; type: biochemical
Insulin Receptor Kinase, sequence (P06213 980-1352): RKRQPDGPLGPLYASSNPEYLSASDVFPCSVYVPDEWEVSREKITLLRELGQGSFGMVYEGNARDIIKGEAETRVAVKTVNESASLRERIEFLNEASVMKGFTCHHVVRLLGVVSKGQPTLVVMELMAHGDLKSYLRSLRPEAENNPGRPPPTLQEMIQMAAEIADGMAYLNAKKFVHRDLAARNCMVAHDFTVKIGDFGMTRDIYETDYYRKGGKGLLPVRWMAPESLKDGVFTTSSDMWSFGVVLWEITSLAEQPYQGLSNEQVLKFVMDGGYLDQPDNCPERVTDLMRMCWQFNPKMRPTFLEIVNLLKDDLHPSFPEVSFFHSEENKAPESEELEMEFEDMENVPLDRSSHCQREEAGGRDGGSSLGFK
Method: as §1, §2

[8] = molecular target: T10, CDK2 in complex with cyclin A (Homo sapiens, UniProt P24941); assay: Kinase Selectivity Assay CDK2; type: biochemical
T10 construct: purchased Upstate Biotech
Method: as §1, §2

[9] = Kinase Selectivity, Tables 2a-2k, read-out: CDK1 IC50
[10] = Kinase Selectivity, Tables 2a-2k, read-out: VEGF-R IC50
[11] = Kinase Selectivity, Tables 2a-2k, read-out: GSK-3 IC50
[12] = Kinase Selectivity, Tables 2a-2k, read-out: PDGF-R kinase IC50
[13] = Kinase Selectivity, Tables 2a-2k, read-out: Caseine Kinase 2 IC50
[14] = Kinase Selectivity, Tables 2a-2k, read-out: HER2 Kinase IC50
[15] = Kinase Selectivity, Tables 2a-2k

SMILES	IC50 (CDK1:Cyclin-B; [9]) [µM]	IC50 (CDK1:Cyclin-B; Table 1, read-out: CDK1 IC50) [µM]	IC50 [4, 10] [µM]	IC50 ([4]; Table 1, read-out: VEGF-R IC50) [µM]	IC50 [1, 11] [µM]	IC50 [6, 14] [µM]	IC50 [8, 15] [µM]	IC50 ([6]; Table 1, read-out: HER2 IC50) [µM]	further results
Cc1ccc(F)c(C(=O)n2nc(Nc3ccc(S(N)(=O)=O)cc3)nc2N)c1F [Cpd 2, 4-[[5-amino-1-(2,6-difluoro-3-methylbenzoyl)-1H-1,2,4-triazol-3-yl]amino]-benzenesulfonamide]	0.003	0.0032	0.366	0.366					IC50 [1]: 0.031 µM; IC50 [2]: 10.7 µM; IC50 [3]: 9.48 µM
Cc1ccsc1C(=O)n1nc(Nc2ccc(S(N)(=O)=O)cc2)nc1N [Cpd 15, 4-[[5-amino-1-[(3-methyl-2-thienyl)carbonyl]-1H-1,2,4-triazol-3-yl]amino]-benzenesulfonamide]	0.0048	0.0048			0.0018				IC50 [2, 12]: 0.079 µM; IC50 [5, 13]: > 100 µM
Cc1cc(C)c(C(=O)n2nc(Nc3ccc(S(N)(=O)=O)cc3)nc2N)s1 [Cpd 33, 4-[[5-amino-1-[(3,5-dimethyl-2-thienyl)carbonyl]-1H-1,2,4-triazol-3-yl]amino]-benzenesulfonamide]			0.023						IC50 [1]: 0.004 µM; IC50 [2]: 0.039 µM; IC50 (Protein Kinase A): > 100 µM; IC50 [5]: > 10 µM; IC50 [6]: 0.005 µM; IC50 [7]: > 10 µM; IC50 (Insulin Receptor Kinase): 0.316 µM; IC50 [3]: > 10 µM; IC50 (CDK1:Cyclin-B; CDK1 IC50, Kinase Selectivity, Tables 2a-2k): 0.003 µM; IC50 (CDK1:Cyclin-B; CDK1 IC50, Table 1): 0.0032 µM; IC50 [4]: 0.0234 µM
Nc1nc(Nc2ccccc2)nn1C(=O)c1c(F)cccc1F [Cpd 61, 1-(2,6-Difluorobenzoyl)-N^3-phenyl-1H-1,2,4-triazole-3,5-diamine]	0.18		0.072		0.055	0.82	0.049		
Nc1nc(Nc2ccccc2)nn1C(=O)c1ccccc1 [Cpd 62, 1-benzoyl-N^3-phenyl-1H-1,2,4-triazole-3,5-diamine]	0.53		0.064		0.073	0.41	0.29		
Nc1nc(Nc2cccc(Cl)c2)nn1C(=O)c1c(F)cccc1F [Cpd 63, N^3-(3-chlorophenyl)-1-(2,6-difluorobenzoyl)-1H-1,2,4-triazole-3,5-diamine]	0.079		0.32		0.073	0.15	0.056		
Nc1nc(Nc2cccc(Cl)c2)nn1C(=O)c1ccccc1 [Cpd 64, 1-benzoyl-N^3-(3-chlorophenyl)-1H-1,2,4-triazole-3,5-diamine]	0.21		0.051		0.021	0.076	0.2		
Nc1nc(Nc2ccccc2)nn1C(=O)Nc1ccccc1 [Cpd 65, 5-amino-N-phenyl-3-(phenylamino)-1H-1,2,4-triazole-1-carboxamide]	0.67		0.18		0.1	0.79	0.41		
Nc1nc(Nc2ccc(S(N)(=O)=O)cc2)nn1C(=S)Nc1c(F)cccc1F [Cpd 66, 5-amino-3-[[4-(aminosulfonyl)phenyl]amino]-N-(2,6-difluorophenyl)-1H-1,2,4-triazole-1-carbothioamide]	0.0006	0.0006				0.06		0.06	IC50 [2, 12]: 1.58 µM; IC50 [5, 13]: > 100 µM
Nc1nc(Nc2ccc(S(N)(=O)=O)cc2)nn1C(=O)Nc1c(F)cccc1F [Cpd 67, 5-amino-3-[[4-(aminosulfonyl)phenyl]amino]-N-(2,6-difluorophenyl)-1H-1,2,4-triazole-1-carboxamide]		0.0037		0.038				0.052	IC50 ([8]; Table 1): 0.0014 µM
CCNS(=O)(=O)c1ccc(Nc2nc(N)n(C(=O)c3c(F)cccc3F)n2)cc1 [Cpd 76, 4-[[5-amino-1-(2,6-difluorobenzoyl)-1H-1,2,4-triazol-3-yl]amino]-N-ethyl-benzenesulfonamide]		0.012		0.53				~1	IC50 ([8]; Table 1): 0.0044 µM
Nc1nc(Nc2ccc(S(N)(=O)=O)cc2)nn1C(=O)c1c(F)ccc(Cl)c1F [Cpd 78, 4-[[5-amino-1-(3-chloro-2,6-difluorobenzoyl)-1H-1,2,4-triazol-3-yl]amino]-benzenesulfonamide]		0.0066		0.42				0.78	IC50 ([8]; Table 1): 0.0017 µM
CNc1nc(N)n(C(=O)c2sccc2C)n1 [Cpd 79, N^3-methyl-1-[(3-methyl-2-thienyl)carbonyl]-1H-1,2,4-triazole-3,5-diamine]		> 100		> 100				> 100	IC50 ([8]; Table 1): > 100 µM
Cc1ccc(F)c(C(=O)n2nc(Nc3ccc(-n4cnnc4)cc3)nc2N)c1F [Cpd 101, 1-(2,6-difluoro-3-methylbenzoyl)-N^3-[4-(4H-1,2,4-triazol-4-yl)phenyl]-1H-1,2,4-triazole-3,5-diamine]		0.143		0.65				0.819	
Cc1ccsc1C(=O)n1nc(Nc2ccc(-n3cnnc3)cc2)nc1N [Cpd 102, 1-[(3-methyl-2-thienyl)carbonyl]-N^3-[4-(4H-1,2,4-triazol-4-yl)phenyl]-1H-1,2,4-triazole-3,5-diamine]		2.35		1.1				2.26	
CN(C)CCNS(=O)(=O)c1ccc(Nc2nc(N)n(C(=O)c3c(F)cccc3F)n2)cc1 [Cpd 106]		0.125		0.559				37.2	IC50 ([8]; Table 1): 0.001 µM
CS(=O)(=O)Nc1ccc(Nc2nc(N)n(C(=O)c3c(F)cccc3F)n2)cc1 [Cpd 111]		0.15		0.702				16.8	
Cc1ccc(F)c(C(=O)n2nc(Nc3ccc(NS(C)(=O)=O)cc3)nc2N)c1F [Cpd 112]		0.087		0.704				16.4	
Nc1nc(Nc2ccccc2)n(C(=O)c2c(F)cccc2F)n1 [Cpd 124, 1-(2,6-difluorobenzoyl)-N^5-phenyl-1H-1,2,4-triazole-3,5-diamine]	2.2		4.8		3	0.82	1.7		
Nc1nc(Nc2ccccc2)n(C(=O)c2ccccc2)n1 [Cpd 125, 1-benzoyl-N^5-phenyl-1H-1,2,4-triazole-3,5-diamine]	> 100		> 100		> 100	> 100	7.3		
Nc1nc(Nc2cccc(Cl)c2)n(C(=O)c2c(F)cccc2F)n1 [Cpd 126, N^5-(3-chlorophenyl)-1-(2,6-difluorobenzoyl)-1H-1,2,4-triazole-3,5-diamine]	> 100		> 100		> 100	~100			
Nc1nc(Nc2cccc(Cl)c2)n(C(=O)c2ccccc2)n1 [Cpd 127, 1-benzoyl-N^5-(3-chlorophenyl)-1H-1,2,4-triazole-3,5-diamine]	> 100		> 100		> 100	> 100			
